Assay results: patent US20240262845A1, “PYRIDINIUM SALTS, METHODS OF MAKING, AND METHODS OF USE” (UNIVERSITY OF WYOMING, priority 2023, published 2024)
“Also recorded” adds a separate entry of the source. Structures can show the parent of a compound that is named as a salt.

Experiments:
[1] = system: Leuprolide; test: Photochemical labeling of leuprolide with pyridinium salt (General Procedure B, LC/MS); type: biochemical; settings: 10 μM leuprolide, 100 μM pyridinium salt, 300 μM glutathione, 30 min
Protocol: General Procedure B: Photochemical Irradiation of Peptides and Proteins: To a 2 mL Pyrex LC/MS vial (Thermo model #03-391-39) were sequentially added solutions containing the desired biomolecule, glutathione (GSH), pyridinium salt, and ammonium acetate (NH4OAc). The resulting solution was diluted to a final volume of 500 μL and then sparged using nitrogen for a minimum of 30 minutes prior to irradiation. The actively sparging solution was then placed in an EvoluChem™ PhotoRedOx Box photoreactor that was equipped with a Kessil, PR160 427 nm LED Lamp and was then irradiated (100% lamp intensity) for the designated time at room temperature while maintaining active sparging. The resultant reaction mixture was then analyzed directly by LC/MS. Analysis of labeling outcomes using LC/MS was performed either by extracted ion chromatogram intensities (method A) or by integrating the area under the peaks associated with peptide content (method B). These values were totaled, and estimated percentages were assigned according to relative intensities of peaks or ion counts.
Labeling of Leuprolide with Pyridinium Salt 2a (Leuprolide-2a Conjugate). […] The reaction mixture was analyzed directly by LC/MS using method B and was estimated to have proceeded with 91% conversion, a >20:1 mono:di labeled ratio, and 4% of +1 label+glutathionylation. […]

[2] = system: HEK293T lysates; test: Chemoproteomic profiling of HEK293T lysates (protein-level enrichment); type: biochemical, human
Protocol: In lysate tryptophan probe treatment for protein-level characterization: HEK293T cell pellets were suspended in native lysis buffer (50 mM HEPES pH 7.5, 150 mM sodium chloride (NaCl), 1.5 mM MgCl2, 1 mM DTT, 0.8% NP-40, 5% glycerol, and 1× protease inhibitors (Thermo)) at 2× the pellet volume. The samples were sonicated on ice for 30 seconds at 20% amplitude with a 2 second pulse ON and 3 second pulse OFF. Cell debris was removed by centrifugation at 20,000×g for 20 minutes at 4° C. Protein concentration was determined by bicinchoninic acid (BCA) (Pierce) and diluted down to 5 mg/mL with ChemProt buffer (50 mM HEPES pH 7.5, 150 mM NaCl, 1.5 mM MgCl2, 1 mM DTT, 0.4% NP-40, and 1x protease inhibitors (Thermo). 5 mg cell lysates were treated with 100× stocks of the tryptophan probes (pyridinium salts 1a, 1b, and 2b) to generate final concentrations (0, 1, 10, and 100 μM) in 1% DMSO. Lysates were incubated for 1 hour at 4° C. followed by photo-activation at respective wavelengths for 20 minutes at 4° C. Excess probe was removed using Sephadex G-25 PD-10 desalting columns (GE Healthcare) pre-equilibrated with 50 mM HEPES pH 7.5, 150 mM NaCl, 1.5 mM MgCl2, and 0.4% NP-40. The samples were then treated with 100 μL Neutravidin resin as a 50% slurry (Peirce). The samples were incubated overnight on a rotating apparatus at R.T. The following day, the beads were transferred to a MobiCol column (Boca Scientific), washed 3× with phosphate buffered saline (PBS) containing 0.2% SDS, washed 3× with PBS, and the enriched proteins were eluted with 2× NuPAGE lithium dodecyl sulfate (LDS) containing 10 mM DTT (Pierce) and heated for 30 minutes at 55° C. The eluent was collected and subsequently treated with 20 mM iodoacetamide (Pierce) for 30 minutes at R.T. protected from light. Samples were passed through detergent removal columns (Pierce) that were pre-equilibrated with 50 mM HEPES pH 8.0. The samples were treated with 2.5 μg Trypsin/LysC (Promega) at 37° C. for 16 hours. The following day, the sample was collected and prepped for isobaric labeling with TMT reagents (Thermo) as specified by the manufacturer.
Quantitative proteomics by two-dimensional nano liquid chromatography-tandem mass spectrometry (nLC-MS/MS): For protein-level characterization, the TMT-labeled sample were reconstituted in 0.1% formic acid (FA)/2% acetonitrile for offline high-pH reversed phase separation (RP10) using a Dionex UltiMate 3000 high-performance liquid chromatography (HPLC) system with fraction collection using Chromeleon v.6.8 (Thermo) software. Separation was achieved on a Waters Xbridge C18 3.5 μm 2.1×150 mm HPLC column (Waters) using a flow rate of 250 μL min-1 and the following ternary gradient and conditions: mobile phase A=water (HPLC grade), mobile phase B=acetonitrile (HPLC grade), and mobile phase C=200 mM ammonium acetate, pH 10. Mobile phase C is held at 10% throughout gradient. Starting conditions are 89% mobile phase A and 1% mobile phase B, ramping mobile phase B to 80% over 65 min. Fractions were collected in 96-well plates at 100 sec per well. Fractions were reduced down to 12 fractions, dried, and reconstituted in 0.1% FA/2% acetonitrile for nLC-MS/MS. All data were acquired using a Orbitrap Fusion Lumos coupled to an Easy-nLC 1200 nanoflow liquid chromatograph operating at 300 nL min-1. Peptides were cleaned up using a 1 cm online custom trap then eluted on a custom 20 cm laser pulled 75 μm column with C18 resin. Peptides were quantified using the synchronous precursor selection (SPS-MS3) or HCD method for TMT quantitation with 120k MS1 resolving power, 50 ms max injection time and 100% AGC. MS2 spectra were selected using the top ten most abundant features with a charge state between 2-6 using CID (collision induced dissociation) in the ion trap. The AGC was set to 100% with an isolation width of 0.7. MS3 was performed on the top 10 most abundant MS2 features between 400-1600 amu with a collision energy of 55%, AGC of 250%, and 50k resolution. […]

Structure (SMILES) | +1 label+glutathionylation [1] | Western blot (streptavidin-HRP) proteome labeling profile of elutions ([2]; 0-100 μM probe, with/without light, before digestion) | percentage of unique enriched proteins (proteome coverage comparison of probes) ([2]; 100 μM probe, FIG. 17B) | number of proteins identified (from ≥2 unique peptides) showing ≥2-fold enrichment versus DMSO ([2]; about 100 μM probe, 5 mg/mL lysate, 60 min incubation, 20 min irradiation: 302 nm (1a), 320 nm (1b), 440 nm (2b))
COC(=O)N(C)[n+]1c(C)cc(-c2ccc3cc(OC)ccc3c2)cc1C [pyridinium salt 2a, 1-((methoxycarbonyl)(methyl)amino)-4-(6-methoxynapthalen-2-yl)-2,6-dimethylpyridin-1-ium tetrafluoroborate] | 4% | – | – | –
COc1ccc2cc(-c3cc(C)[n+](N(C)C(=O)OCCCCC[C@H]4SC[C@H]5NC(=O)N[C@H]54)c(C)c3)ccc2c1 (stereo in doubt) [pyridinium salt 2b, 4-(6-methoxynaphthalen-2-yl)-2,6-dimethyl-1-(methyl(((5-((3aR,4R,6aS)-2-oxohexahydro-1H-thieno[3,4-d]imidazol-4-yl)pentyl)oxy)carbonyl)amino)pyridin-1-ium tetrafluoroborate] | – | concentration and optically dependent proteome labeling profiles; also recorded: dose-response profiles | about 69% | 523
